# Where a name gives a salt, the structure may show the parent alone.
# What was measured:
# DNA-PK = DNA-PK (Homo sapiens (Human), UniProt P78527); test: DNA-PK Enzyme-Linked Immunosorbent Assay (phosphorylation of GST-p53 (1-101) peptide); assay type: biochemical; conditions: ELISA
# Method in brief: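 Inhibition measured by 450 nm absorbance after HRP/TMB detection of phospho-Ser15 on immobilized GST-p53 (1-101). The kinase reaction used 0.1 μg/mL DNA-PK and 20 μM ATP, 1 h at 25 °C. Ten 3-fold compound dilutions, top final concentration 100 nM.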
# ATM = ATM (Homo sapiens (Human), UniProt Q13315); test: ATM in Cell Western Assay (pKAP1 in etoposide-treated MCF-7 cells); assay type: cell-based
# Sequence of ATM (Q13315 whole entry): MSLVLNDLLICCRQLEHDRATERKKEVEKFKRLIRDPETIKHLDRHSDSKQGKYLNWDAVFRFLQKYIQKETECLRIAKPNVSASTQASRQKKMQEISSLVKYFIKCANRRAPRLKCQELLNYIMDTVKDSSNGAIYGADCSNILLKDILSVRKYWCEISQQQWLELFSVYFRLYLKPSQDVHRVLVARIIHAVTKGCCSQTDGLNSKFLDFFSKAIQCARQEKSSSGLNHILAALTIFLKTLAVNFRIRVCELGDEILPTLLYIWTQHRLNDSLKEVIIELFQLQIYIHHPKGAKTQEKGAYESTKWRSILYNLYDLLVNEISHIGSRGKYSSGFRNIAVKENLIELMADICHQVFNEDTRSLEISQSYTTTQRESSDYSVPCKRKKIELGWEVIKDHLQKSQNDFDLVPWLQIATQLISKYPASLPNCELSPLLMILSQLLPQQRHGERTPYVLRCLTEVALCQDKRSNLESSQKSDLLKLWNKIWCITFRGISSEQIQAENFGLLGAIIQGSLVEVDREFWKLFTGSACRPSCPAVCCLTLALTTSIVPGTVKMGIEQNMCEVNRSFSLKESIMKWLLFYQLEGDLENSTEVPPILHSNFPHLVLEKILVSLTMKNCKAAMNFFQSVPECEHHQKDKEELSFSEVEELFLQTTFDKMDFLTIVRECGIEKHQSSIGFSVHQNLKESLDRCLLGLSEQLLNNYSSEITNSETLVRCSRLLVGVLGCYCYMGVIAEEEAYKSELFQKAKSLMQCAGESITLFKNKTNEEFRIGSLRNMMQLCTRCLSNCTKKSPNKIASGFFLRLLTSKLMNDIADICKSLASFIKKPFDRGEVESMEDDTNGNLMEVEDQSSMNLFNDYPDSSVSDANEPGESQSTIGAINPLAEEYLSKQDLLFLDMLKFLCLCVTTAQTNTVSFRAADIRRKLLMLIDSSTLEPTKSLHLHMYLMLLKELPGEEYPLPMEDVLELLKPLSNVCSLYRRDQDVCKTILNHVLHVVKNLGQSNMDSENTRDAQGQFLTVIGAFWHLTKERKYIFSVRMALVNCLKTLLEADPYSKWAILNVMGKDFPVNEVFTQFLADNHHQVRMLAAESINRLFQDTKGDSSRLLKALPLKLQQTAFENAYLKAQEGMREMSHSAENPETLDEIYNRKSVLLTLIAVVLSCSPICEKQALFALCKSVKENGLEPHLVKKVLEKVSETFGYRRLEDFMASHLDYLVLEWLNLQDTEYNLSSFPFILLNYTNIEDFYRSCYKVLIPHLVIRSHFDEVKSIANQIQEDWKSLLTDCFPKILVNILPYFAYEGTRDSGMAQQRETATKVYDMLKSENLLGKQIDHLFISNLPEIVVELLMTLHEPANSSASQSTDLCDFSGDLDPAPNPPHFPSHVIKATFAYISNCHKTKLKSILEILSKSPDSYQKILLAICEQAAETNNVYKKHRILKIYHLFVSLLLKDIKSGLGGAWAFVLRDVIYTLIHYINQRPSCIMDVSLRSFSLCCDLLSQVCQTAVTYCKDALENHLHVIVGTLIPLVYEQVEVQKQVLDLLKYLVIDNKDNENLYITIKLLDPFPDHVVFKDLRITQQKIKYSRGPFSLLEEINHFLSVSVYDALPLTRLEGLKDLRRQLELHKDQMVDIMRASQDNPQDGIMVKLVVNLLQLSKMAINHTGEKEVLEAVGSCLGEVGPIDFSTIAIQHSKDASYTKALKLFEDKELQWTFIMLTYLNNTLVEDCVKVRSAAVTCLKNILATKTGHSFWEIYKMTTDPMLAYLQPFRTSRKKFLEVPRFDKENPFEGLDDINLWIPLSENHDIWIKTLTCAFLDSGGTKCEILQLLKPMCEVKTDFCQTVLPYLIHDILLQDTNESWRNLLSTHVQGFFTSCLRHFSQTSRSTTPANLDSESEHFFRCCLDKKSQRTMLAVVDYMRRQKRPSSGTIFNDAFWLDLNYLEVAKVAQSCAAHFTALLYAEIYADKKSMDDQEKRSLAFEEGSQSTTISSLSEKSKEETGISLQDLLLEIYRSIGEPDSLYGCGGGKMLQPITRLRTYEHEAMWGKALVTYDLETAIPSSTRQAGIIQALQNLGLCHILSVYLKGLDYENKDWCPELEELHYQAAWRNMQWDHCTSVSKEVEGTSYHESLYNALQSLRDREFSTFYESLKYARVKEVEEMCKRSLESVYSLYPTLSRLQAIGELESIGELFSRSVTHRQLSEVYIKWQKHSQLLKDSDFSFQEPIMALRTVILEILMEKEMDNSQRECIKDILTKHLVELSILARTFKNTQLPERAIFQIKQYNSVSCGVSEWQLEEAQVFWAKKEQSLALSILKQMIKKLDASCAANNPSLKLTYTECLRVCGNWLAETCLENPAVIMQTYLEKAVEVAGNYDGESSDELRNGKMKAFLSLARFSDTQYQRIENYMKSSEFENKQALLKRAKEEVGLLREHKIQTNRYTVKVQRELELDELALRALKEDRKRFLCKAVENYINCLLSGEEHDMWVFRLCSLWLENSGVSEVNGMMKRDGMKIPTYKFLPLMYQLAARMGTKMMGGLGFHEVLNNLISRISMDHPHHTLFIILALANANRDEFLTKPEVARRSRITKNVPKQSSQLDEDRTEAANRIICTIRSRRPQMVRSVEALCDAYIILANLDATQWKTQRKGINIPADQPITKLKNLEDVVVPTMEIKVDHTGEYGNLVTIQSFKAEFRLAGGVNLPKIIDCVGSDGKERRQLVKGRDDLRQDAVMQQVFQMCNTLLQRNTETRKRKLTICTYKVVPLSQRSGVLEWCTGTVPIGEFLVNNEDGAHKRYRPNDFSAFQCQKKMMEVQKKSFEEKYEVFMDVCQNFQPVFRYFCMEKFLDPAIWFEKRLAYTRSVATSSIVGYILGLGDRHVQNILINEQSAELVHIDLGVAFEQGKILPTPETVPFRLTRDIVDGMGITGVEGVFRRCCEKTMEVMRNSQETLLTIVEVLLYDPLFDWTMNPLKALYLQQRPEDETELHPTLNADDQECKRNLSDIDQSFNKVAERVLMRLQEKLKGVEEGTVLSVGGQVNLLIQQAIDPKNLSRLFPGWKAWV
# Method in brief: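 After paraformaldehyde fixation and Triton X-100 permeabilization, immunostained plates were read by infrared scanning (ODYSSEY CLx). Compound was given as 10 doses, 3-fold dilutions from a 1 μM final top concentration.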
# [1] = MCF-7 cells, etoposide 100 μM, 1 hr, pKAP1 readout
# [2] = pKAP1 in etoposide-treated MCF-7 cells
SMILES,IC50 (DNA-PK; ATP 20 μM) [nM],IC50 (ATM; [1]) [nM],IC50 (DNA-PK; 20 μM ATP) [nM],IC50 (ATM; [2]) [nM]
"CN1C(=O)C2(CCC2)c2c1cnc1cc(F)c(-c3cnc(N4CC(N(C)C)C4)c(NS(=O)(=O)N(C)C)c3)cc21 [Example 316, 8′-{6-[3-(Dimethylamino)azetidin-1-yl]-5-[(dimethylsulfamoyl)amino]pyridin-3-yl}-7′-fluoro-3′-methyl-2′,3′-dihydrospiro[cyclobulane-1,1′-pyrrolo[2,3-c]quinoline]-2′-one hydrochloride]",1 to 100,1 to 100,,
CN(C)CCCOc1ncc(-c2ccc3ncc4c(c3c2)C2(CC2)C(=O)N4C)cc1NS(=O)(=O)c1ccc(C(C)(C)C)cc1 [Example 127],1 to 100,1 to 100,,
"CN1CCN(CCCOc2ncc(-c3ccc4ncc5c(c4c3)C3(CCC3)C(=O)N5C)cc2NS(C)(=O)=O)CC1 [Example 299, N-(5-(3′-Methyl-2′-oxo-2′,3′-dihydrospiro[cyclobutane-1,1′-pyrrolo[2,3-c]quinolin]-8′-yl)-2-(3-(4-methylpiperazin-1-yl)propoxy)pyridin-3-yl)methanesulfonamide]",1 to 100,1 to 100,,
"CC(C)NCCOc1ncc(-c2cc3c4c(cnc3cc2F)N(C)C(=O)C42CN(c3ccccc3F)C2)cc1NS(C)(=O)=O [Example 540, N-(5-(7′-Fluoro-1-(2-fluorophenyl)-3′-methyl-2′-oxo-2′,3′-dihydrospiro [azetidine-3,1′-pyrrolo[2,3-c]quinolin]-8′-yl)-2-(2-(isopropylamino)ethoxy)pyridin-3-yl)methanesulfonamide]",,,< 0.5,1 to 100
"CN(C)CCCOc1ccc(-c2ccc3ncc4c(c3c2)C2(CC2)C(=O)N4C)cc1NS(=O)(=O)c1ccccc1 [Example 63, N-(2-(3-(Dimethylamino)propoxy)-5-(3′-methyl-2′-oxo-2′,3′-dihydrospiro[cyclopropane-1,1′-pyrrolo[2,3-c]quinolin]-8′-yl)phenyl)benzenesulfonamide]",1 to 100,0.5 to 1,,
"CC(C)NCCOc1ncc(-c2cc3c4c(cnc3cc2F)N(C)C(=O)C42CCC2)cc1NS(=O)(=O)C1(C)CC1 [Example 367, N-(5-(7′-Fluoro-3′-methyl-2′-oxo-2′,3′-dihydrospiro[cyclobutane-1,1′-pyrrolo[2,3-c]quinolin]-8′-yl)-2-(2-(isopropylamino)ethoxy)pyridin-3-yl)-1-methylcyclopropane-l-sulfonamide]",,,1 to 100,1 to 100
"CN(C)CCCCOc1ncc(-c2ccc3ncc4c(c3c2)C2(CC2)C(=O)N4C)cc1NS(=O)(=O)C1CC1 [Example 56, N-(2-(4-(Dimethylamino)butoxy)-5-(3′-methyl-2′-oxo-2′,3′-dihydrospiro [cyclopropane-1,1′-pyrrolo[2,3-c]quinolin]-8′-yl)pyridin-3-yl)cyclopropanesulfonamide]",1 to 100,1 to 100,,
"COC1CCN(S(=O)(=O)Nc2cc(-c3ccc4ncc5c(c4c3)C3(CCC3)C(=O)N5C)cnc2OCCCN(C)C)CC1 [Example 187, N-(2-(3-(Dimethylamino)propoxy)-5-(3′-methyl-2′-oxo-2′,3′-dihydrospiro[cyclobulane-1,1′-pyrrolo[2,3-c]quinolin]-8′-yl)pyridin-3-yl)-4-methoxypiperidine-1-sulfonamide]",1 to 100,1 to 100,,
"CN(C)CCCOc1ncc(-c2ccc3ncc4c(c3c2)C2(CCC2)C(=O)N4C)cc1NS(=O)(=O)c1ccc(O)cc1 [Example 220, N-(2-(3-(Dimethylamino)propoxy)-5-(3′-methyl-2′-oxo-2′,3′-dihydrospiro [cyclobutane-1,1′-pyrrolo[2,3-c]quinolin]-8′-yl)pyridin-3-yl)-4-hydroxybenzenesulfonamide hydrochloride]",< 0.5,1 to 100,,
"COc1cccc([C@H]2C[C@@]3(C2)C(=O)N(C)c2cnc4cc(F)c(-c5cnc(OCCNC(C)C)c(NS(C)(=O)=O)c5)cc4c23)n1 [Example 429, trans-N-(5-(7′-Fluor-3-(6-methoxypyridin-2-yl)-3′-methyl-2′-oxo-2′,3′-dihydrospiro[cyclobutane-1,1′-pyrrolo[2,3-c]quinolin]-8′-yl)-2-(2-(isopropylamino)ethoxy)pyridin-3-yl)methanesulfonamide]",,,1 to 100,1 to 100
"COc1ccc(S(=O)(=O)Nc2cc(-c3ccc4ncc5c(c4c3)C3(CCC3)C(=O)N5C)cnc2OCCCN(C)C)cc1 [Example 144, N-(2-(3-(Dimethylamino)propoxy)-5-(3′-methyl-2′-oxo-2′,3′-dihydrospiro [cyclobutane-1,1′-pyrrolo[2,3-c]quinolin]-8′-yl)pyridin-3-yl)-4-methoxybenzenesulfonamide hydrochloride]",1 to 100,1 to 100,,
"CC(C)NCCOc1ncc(-c2cc3c4c(cnc3cc2F)N(C)C(=O)C42CCC2)cc1NS(=O)(=O)N1CCOCC1 [Example 373, N-(5-(7′-Fluoro-3′-methyl-2′-oxo-2′,3′-dihydrospiro [cyclobutane-1,1′-pyrrolo [2,3-c]quinolin]-8′-yl)-2-(2-(isopropylamino)ethoxy)pyridin-3-yl)morpholine-4-sulfonamide hydrochloride]",,,1 to 100,1 to 100
"CN1C(=O)C2(CCC2)c2c1cnc1cc(F)c(-c3cnc(N4CC(N(C)C)C4)c(NS(=O)(=O)c4ccc(F)cc4F)c3)cc21 [Example 315, N-(2-(3-(Dimethylamino)azetidin-1-yl)-5-(7′-fluoro-3′-methyl-2′-oxo-2′,3′-dihydrospiro[cyclobulane-1,1′-pyrrolo[2,3-c]quinolin]-8′-yl)pyridin-3-yl)-2,4-difluorobenzenesulfonamide hydrochloride]",1 to 100,1 to 100,,
"CC(C)NCCOc1ncc(-c2cc3c4c(cnc3cc2F)N(C)C(=O)C42CN(C3CCCC3)C2)cc1NS(C)(=O)=O [Example 498, N-(5-(1-Cyclopentyl-7′-fluoro-3′-methyl-2′-oxo-2′,3′-dihydrospiro[azetidine-3,1′-pyrrolo[2,3-c]quinolin]-8′-yl)-2-(2-(isopropylamino)ethoxy)pyridin-3-yl)methanesulfonamide]",,,0.5 to 1,1 to 100
COc1ccc([C@H]2C[C@]3(C2)C(=O)N(C)c2cnc4cc(F)c(-c5cnc(OCCNC(C)C)c(NS(C)(=O)=O)c5)cc4c23)cn1 [Example 430],,,1 to 100,1 to 100
"CN1C(=O)C2(CCC2)c2c1cnc1ccc(-c3cnc(OCCCN4CCOCC4)c(NS(=O)(=O)N(C)C)c3)cc21 [Example 304, 8′-{5-[(Dimethylsulfamoyl)amino]-6-[3-(morpholin-4-yl)propoxy]pyridin-3-yl)-3′-methyl-2′,3′-dihydrospiro[cyclobutane-1,1′-pyrrolo[2,3-c]quinoline]-2′-one]",0.5 to 1,1 to 100,,
"CCNCCOc1ncc(-c2ccc3ncc4c(c3c2)C2(CCC2)C(=O)N4C)cc1NS(C)(=O)=O [Example 248, N-(2-(2-(Ethylamino)ethoxy)-5-(3′-methyl-2′-oxo-2′,3′-dihydrospiro[cyclobutane-1,1′-pyrrolo[2,3-c]quinolin]-8′-yl)pyridin-3-yl) methanesulfonamide]",< 0.5,1 to 100,,
"CN(C)CCCOc1ncc(-c2ccc3ncc4c(c3c2)C2(CN(C)C2)C(=O)N4C)cc1NS(C)(=O)=O [Example 478, N-(5-(1,3′-Dimethyl-2′-oxo-2′,3′-dihydrospiro[azetidine-3,1′-pyrrolo[2,3-c]quinolin]-8′-yl)-2-(3-(dimethylamino)propoxy)pyridin-3-yl)methanesulfonamide]",,,1 to 100,1 to 100
"CC(C)NCCOc1ncc(-c2cc3c4c(cnc3cc2F)N(C)C(=O)C42CCC2)cc1NS(=O)(=O)N(C)C [Example 369, 8′-{5-[(Dimethylsulfamoyl)amino]-6-{2-[(propan-2-ylamino]ethoxy′}pyridin-3-yl}-7′-fluoro-3′-methyl-2′,3′-dihydrospiro [cyclobutane-1,1′-pyrrolo[2,3-c]quinoline]-2′-one hydrochloride]",,,0.5 to 1,1 to 100
"CCS(=O)(=O)Nc1cc(-c2ccc3ncc4c(c3c2)C2(CCC2)C(=O)N4C)cnc1N1CC(N(C)C)C1 [Example 318, N-(2-(3-(Dimethylamino)azetidin-1-yl)-5-(3′-methyl-2′-oxo-2′,3′-dihydrospiro [cyclobulane-1,1′-pyrrolo[2,3-c]quinolin]-8′-yl)pyridin-3-yl)etlianesulfonamide]",0.5 to 1,1 to 100,,
COc1cccc(S(=O)(=O)Nc2cc(-c3ccc4ncc5c(c4c3)C3(CC3)C(=O)N5C)cnc2OCCCN(C)C)c1 [Example 104],1 to 100,0.5 to 1,,
"CN(C)CCCOc1ncc(-c2ccc3ncc4c(c3c2)C2(CCC2)C(=O)N4C)cc1NS(=O)(=O)C1CC1 [Example 190, N-(2-(3-(Dimethylamino)propoxy)-5-(3′-methyl-2′-oxo-2′,3′-dihydrospiro[cyclobulane-1,1′-pyrrolo[2,3-c]quinolin]-8′-yl)pyridin-3-yl)cyclopropanesulfonamide]",1 to 100,1 to 100,,
"Cc1ccc(S(=O)(=O)Nc2cc(-c3cc4c5c(cnc4cc3F)N(C)C(=O)C53CCC3)cnc2OCCCN2CCCCC2)cn1 [Example 217, N-(5-(7′-Fluoro-3′-methyl-2′-oxo-2′,3′-dihydrospiro[cyclobulane-1,1′-pyrrolo[2,3-c]quinolin]-8′-yl)-2-(3-(piperidin-1-yl)propoxy)pyridin-3-yl)-6-methylpyridine-3-sulfonamide hydrochloride]",1 to 100,1 to 100,,
